pEC50, pIC50, pKd: −log10 of the molar value.
Target: K-ras G12V (Homo sapiens, UniProt P01116, G12V)
Test: G-LISA Ras activation assay, 293H cells transfected with G12V mutant
Assay type: cell-based
Details: Table 1; G-LISA, 293H transfected, 1 hour treatment; read-out: IC50 (μM) G12V
Method: (§1) 293H cells were seeded in 6-wells at 0.6×10^6 cells per well and transfected next day with 5 μg of Ras wild-type, or G12C, G12D or G12V mutant DNA plasmid vector using transfection reagent Lipofectamine 3000. Next day cells were treated with 3.125-50 μM of Ras compounds for 1 hour. Wild-type transfected cells were subsequently treated with 100 ng/ml EGF for 2 minutes. Cells were washed once in ice-cold PBS, lysed in complete lysis buffer on ice, and processed by G-LISA according to Cytoskeleton protocol.
(§2) In-cell selectivity of the compounds presented herein against a specific K-ras mutant form can also be tested as shown in the following exemplary experiment. 293H cells were seeded in 6-wells and transfected next day with 5 μg of Ras wild-type, or G12C, G12D or G12V mutant DNA plasmid vector. Next day cells were treated with 3.125-50 μM of Ras compounds for 1 hour. Wild-type transfected cells were subsequently treated with 100 ng/ml EGF for 2 minutes. Cells were washed once in ice-cold PBS, lysed in complete lysis buffer on ice, and processed by G-LISA according to Cytoskeleton protocol. FIG. 1 depicts exemplary results.
as §1, with “In still further experiments, the inventors tested selected compounds in a G-LISA assay to compare IC50 values for wild-type and various mutant K-Ras (G12D, G12V) using the following general protocol: 293H” for “293H”

SMILES | IC50 [µM]
CC(=O)Nc1ccc(-c2csc(NC(=O)c3sc(C)nc3C)n2)cc1 [Compound 4663] | 32
Cc1nc(C)c(C(=O)Nc2nc(-c3ccc4c(c3)CCC(=O)N4)c(C)s2)s1 [Compound 4802] | 17
Cc1nc(-c2ccccc2)sc1C(=O)Nc1nc(-c2ccc3c(c2)CCC(=O)N3)cs1 [Compound 4878] | > 25

Same assay, conditions: Table 5; IC50, 293H transfected, 1 hour treatment; read-out: G-LISA (G12V)

SMILES | pIC50
CC(=O)Nc1ccc(-c2csc(NC(=O)c3sc(C)nc3C)n2)cc1 [Compound 4663] | 4.49
Cc1nc(C)c(C(=O)Nc2nc(-c3ccc4c(c3)CCC(=O)N4)c(C)s2)s1 [Compound 4802] | 4.77
Cc1nc(-c2ccccc2)sc1C(=O)Nc1nc(-c2ccc3c(c2)CCC(=O)N3)cs1 [Compound 4878] | < 4.60

Target: K-ras G12D (Homo sapiens, UniProt P01116, G12D)
Test: G-LISA Ras activation assay, 293H cells transfected with G12D mutant
Assay type: cell-based
Details: Table 1; G-LISA, 293H transfected, 1 hour treatment; read-out: IC50 (μM) G12D
Method: as §1, §2
as §1, with “In still further experiments, the inventors tested selected compounds in a G-LISA assay to compare IC50 values for wild-type and various mutant K-Ras (G12D, G12V) using the following general protocol: 293H” for “293H”

SMILES | IC50 [µM]
Cc1nc(C)c(C(=O)Nc2nc(-c3ccc4c(c3)CCC(=O)N4)cs2)s1 [Compound 4662] | > 25
CC(=O)Nc1ccc(-c2csc(NC(=O)c3sc(C)nc3C)n2)cc1 [Compound 4663] | 15
Cc1nc(C)c(C(=O)Nc2nc(-c3ccc(NC(=O)c4ccccc4)cc3)cs2)s1 [Compound 4665] | > 25
O=C1CCc2cc(-c3csc(NC(=O)c4cnc(C5CC5)s4)n3)ccc2N1 [Compound 4683] | 12
O=C1CCc2cc(-c3csc(NC(=O)c4cnc(-c5ccccc5)s4)n3)ccc2N1 [Compound 4684] | > 25
N#Cc1ncc(C(=O)Nc2nc(-c3ccc4c(c3)CCC(=O)N4)cs2)s1 [Compound 4685] | > 25
CC(=O)N1CCCc2cc(-c3csc(NC(=O)c4sc(C)nc4C)n3)ccc21 [Compound 4686] | 11
Cc1nc(C)c(C(=O)Nc2nc(-c3ccc4c(c3)CCC(=O)N4C)cs2)s1 [Compound 4687] | 19
O=C1CCc2cc(-c3csc(NC(=O)c4scnc4C4CC4)n3)ccc2N1 [Compound 4735] | > 25
Cc1nc(C)c(C(=O)Nc2nc(-c3ccc4c(c3)CCC(=O)N4)c(C)s2)s1 [Compound 4802] | > 25
Cc1nc(-c2ccccc2)sc1C(=O)Nc1nc(-c2ccc3c(c2)CCC(=O)N3)cs1 [Compound 4878] | 19

Same assay, conditions: Table 5; IC50, 293H transfected, 1 hour treatment; read-out: G-LISA (G12D)

SMILES | pIC50
Cc1nc(C)c(C(=O)Nc2nc(-c3ccc4c(c3)CCC(=O)N4)cs2)s1 [Compound 4662] | < 4.60
CC(=O)Nc1ccc(-c2csc(NC(=O)c3sc(C)nc3C)n2)cc1 [Compound 4663] | < 4.60
Cc1nc(C)c(C(=O)Nc2nc(-c3ccc(NC(=O)c4ccccc4)cc3)cs2)s1 [Compound 4665] | < 4.60
O=C1CCc2cc(-c3csc(NC(=O)c4cnc(C5CC5)s4)n3)ccc2N1 [Compound 4683] | 4.92
O=C1CCc2cc(-c3csc(NC(=O)c4cnc(-c5ccccc5)s4)n3)ccc2N1 [Compound 4684] | < 4.60
N#Cc1ncc(C(=O)Nc2nc(-c3ccc4c(c3)CCC(=O)N4)cs2)s1 [Compound 4685] | < 4.60
CC(=O)N1CCCc2cc(-c3csc(NC(=O)c4sc(C)nc4C)n3)ccc21 [Compound 4686] | 4.96
Cc1nc(C)c(C(=O)Nc2nc(-c3ccc4c(c3)CCC(=O)N4C)cs2)s1 [Compound 4687] | 4.72
O=C1CCc2cc(-c3csc(NC(=O)c4scnc4C4CC4)n3)ccc2N1 [Compound 4735] | < 4.60
Cc1nc(C)c(C(=O)Nc2nc(-c3ccc4c(c3)CCC(=O)N4)c(C)s2)s1 [Compound 4802] | 4.57
Cc1nc(-c2ccccc2)sc1C(=O)Nc1nc(-c2ccc3c(c2)CCC(=O)N3)cs1 [Compound 4878] | 4.72

Target: K-Ras wild-type (Homo sapiens, UniProt P01116)
Test: G-LISA Ras activation assay, 293H cells transfected with Ras wild-type, EGF-stimulated
Assay type: cell-based
Details: Table 1; G-LISA, 293H transfected, 1 hour treatment, 100 ng/ml EGF; read-out: IC50 (μM) Wild-type
Method: as §1, §2
as §1, with “In still further experiments, the inventors tested selected compounds in a G-LISA assay to compare IC50 values for wild-type and various mutant K-Ras (G12D, G12V) using the following general protocol: 293H” for “293H”

SMILES | IC50 [µM]
CC(=O)Nc1ccc(-c2csc(NC(=O)c3sc(C)nc3C)n2)cc1 [Compound 4663] | 7

Same assay, conditions: Table 5; IC50, 293H transfected, 1 hour treatment, 100 ng/ml EGF; read-out: G-LISA (wild type)

SMILES | pIC50
CC(=O)Nc1ccc(-c2csc(NC(=O)c3sc(C)nc3C)n2)cc1 [Compound 4663] | 5.15

Tested on: Akt phosphorylation in Panc1 (G12D) cells
Test: In-Cell Western Akt phosphorylation
Assay type: cell-based
Details: EC50, one hour treatment; read-out: In-Cell Western Akt phosporylation Panc1 (G12D)
Method: (§3) In-cell phosphorylation assays for Erk and Akt were performed on various of the compounds and exemplary results are shown in Table 3 below using […] and Panc10.05 cell lines for G12D K-ras mutants.
(§4) Cells are seeded in complete medium into black sided, clear-bottom 384-well microplates at 3000 cells/[…]/well. Plates are returned to 37° C. CO2 incubator for 18 hr. Drug is made as 200× in DMSO and diluted into medium to 10×. To each well is added 4 ul 10× test article or controls, and plates are returned to the incubator. Final assay DMSO concentration is 0.5%. After one hour, cells are fixed in formaldehyde, rinsed & permeabilized with triton X-100, and blocked with BSA/Goat serum blocking solution. Primary phospho-Akt and phospho-ERK antibodies are added and plates are incubated overnight at 4° C. Plates are rinsed with Tween-20 wash buffer and secondary antibody (Goat anti-rabbit, Thermofisher) is added. After 2 hours, plates are rinsed in Tween-20 wash buffer, and then PBS. Plates are imaged on the Celigo (Nexcelom) and cellular fluorescence is quantitated. Full inhibition of phospho-Akt is achieved with 1 uM BEZ235 (Sellekchem), while full inhibition of phospho-ERK is achieved with 1 uM MEK Inhibitor II Calbiochem). EC50 values are calculated using Graphpad Prism.

SMILES | pEC50
Cc1nc(-c2ccccc2)sc1C(=O)Nc1nc(-c2ccc3c(c2)CCC(=O)N3)cs1 [Compound 4878] | 4.59

Tested on: Akt phosphorylation in Panc10.05 (G12D) cells
Test: In-Cell Western Akt phosphorylation
Assay type: cell-based
Details: EC50, one hour treatment; read-out: In-Cell Western Akt phosporylation Panc10.05 (G12D)
Method: as §3, §4

SMILES | pEC50
Cc1nc(-c2ccccc2)sc1C(=O)Nc1nc(-c2ccc3c(c2)CCC(=O)N3)cs1 [Compound 4878] | < 4.60

Target: K-ras G12V (GTP) (Homo sapiens, UniProt P01116, G12V)
Test: SPR assay (surface plasmon resonance)
Assay type: binding
Details: 25° C., 8% DMSO
Method: Selected compounds were also tested for selective binding to wild type and mutant forms of K-ras in the active and non-active state using surface plasmon resonance, and exemplary results are shown in Table 4.
The running buffer in all surface plasmon resonance experiments was 10 mM HEPES pH 7.4, 150 mM NaCl, 0.1% (v/v) Tween-20, 1 mM MgCl2, 8% DMSO. Experiments were carried out on the SensiQ Pioneer optical biosensor. The flow rate was set at 50 μL/min and the temperature was 25° C. kRAS protein was immobilized to the Nickel-NTA charged surface of the SensiQ HisCap chip (sensiqtech.com) giving a yield of 4000 RU. Small molecules were prepared in 100% DMSO and further diluted to 8% DMSO in running buffer. The small molecules were injected using the Taylor diffusion gradient injection mode (OneStep®, see e.g., Evaluation of Taylor dispersion injections: Determining kinetic/affinity interaction constants and diffusion coefficients in label-free biosensing, John G. Quinn, Analytical Biochemistry (2011)). Buffer blanks were injected for double referencing purposes. Data processing and model fitting were performed using Qdat.

SMILES | SPR Assay G12V (GTP) Kd | pKd | SPR Assay G12V (GTP) Rmax
CC(=O)Nc1ccc(-c2csc(NC(=O)c3sc(C)nc3C)n2)cc1 [Compound 4663] | No binding/fit |  | 
CC(=O)N1CCCc2cc(-c3csc(NC(=O)c4sc(C)nc4C)n3)ccc21 [Compound 4686] |  | 4.94 | Rmax = 94.2 ± 0.2
Cc1nc(C)c(C(=O)Nc2nc(-c3ccc4c(c3)CCC(=O)N4C)cs2)s1 [Compound 4687] |  | 5.18 | Rmax = 72.6 ± 0.1
O=C1CCc2cc(-c3csc(NC(=O)c4scnc4C4CC4)n3)ccc2N1 [Compound 4735] |  | 4.37 | Rmax = 203 ± 3

Tested on: Ishikawa (K-Ras wild-type) cells
Test: 72 hr cell viability (CellTiterBlue)
Assay type: cell-based
Details: GI50, 72 hr
Method: (§5) Viability assays were performed on exemplary compounds and Table 2 below lists exemplary results for selected compounds tested on wild type (Ishikawa) and various K-ras mutants (Panc1-G12D; Panc10.05-G12D; HCT116-G13D).
(§6) Cells are counted and seeded at 1000 cells/36 ul medium/well into 384-well microplates. Cells are returned to 37° C. CO2 incubator for 18 hr. Drug is made as 200× in DMSO and diluted into medium to 10×. To each well is added 4 ul 10× drug, and plates are returned to the incubator. Final assay DMSO concentration is 0.5%. After 72 hr, 8 ul CellTiterBlue (Promega) is added to each well. After 3 hr, fluorescence (Ex550/Em590) is determined on the Victor Plate Reader (Perkin Elmer). Assay range is determined by DMSO control (100% viability) and 100 uM tamoxifen (0% viability). GI50 values are calculated using Graphpad Prism.

SMILES | pIC50
Cc1nc(-c2ccccc2)sc1C(=O)Nc1nc(-c2ccc3c(c2)CCC(=O)N3)cs1 [Compound 4878] | 5.30

Tested on: Panc1 (G12D) cells
Test: 72 hr cell viability (CellTiterBlue)
Assay type: cell-based
Details: GI50, 72 hr
Method: as §5, §6

SMILES | pIC50
Cc1nc(-c2ccccc2)sc1C(=O)Nc1nc(-c2ccc3c(c2)CCC(=O)N3)cs1 [Compound 4878] | 5.15

Tested on: Erk phosphorylation in Panc1 (G12D) cells
Test: In-Cell Western Erk phosphorylation
Assay type: cell-based
Details: EC50, one hour treatment; read-out: In-Cell Western Erk phosporylation Panc1 (G12D)
Method: as §3, §4

SMILES | pEC50
Cc1nc(-c2ccccc2)sc1C(=O)Nc1nc(-c2ccc3c(c2)CCC(=O)N3)cs1 [Compound 4878] | 4.72

Tested on: Erk phosphorylation in Panc10.05 (G12D) cells
Test: In-Cell Western Erk phosphorylation
Assay type: cell-based
Details: EC50, one hour treatment; read-out: In-Cell Western Erk phosporylation Panc10.05 (G12D)
Method: as §3, §4

SMILES | pEC50
Cc1nc(-c2ccccc2)sc1C(=O)Nc1nc(-c2ccc3c(c2)CCC(=O)N3)cs1 [Compound 4878] | 4.89

Source: US10487078B2, “Compositions and methods of targeting mutant K-RAS” (NantBio, Inc., priority 2015, dated 2019)
